According to patent US20190152992A1, “BENZODIOXANE DERIVATIVES AND THEIR PHARMACEUTICAL USE” (Orion Corporation, priority 2016, published 2019):
Structures can show the parent of a compound that is named as a salt.

Experiments:
[1] = molecular target: T1, human alpha2A receptors (Homo sapiens, UniProt P08913); experiment: cell-based
T1 sequence (P08913 1-465): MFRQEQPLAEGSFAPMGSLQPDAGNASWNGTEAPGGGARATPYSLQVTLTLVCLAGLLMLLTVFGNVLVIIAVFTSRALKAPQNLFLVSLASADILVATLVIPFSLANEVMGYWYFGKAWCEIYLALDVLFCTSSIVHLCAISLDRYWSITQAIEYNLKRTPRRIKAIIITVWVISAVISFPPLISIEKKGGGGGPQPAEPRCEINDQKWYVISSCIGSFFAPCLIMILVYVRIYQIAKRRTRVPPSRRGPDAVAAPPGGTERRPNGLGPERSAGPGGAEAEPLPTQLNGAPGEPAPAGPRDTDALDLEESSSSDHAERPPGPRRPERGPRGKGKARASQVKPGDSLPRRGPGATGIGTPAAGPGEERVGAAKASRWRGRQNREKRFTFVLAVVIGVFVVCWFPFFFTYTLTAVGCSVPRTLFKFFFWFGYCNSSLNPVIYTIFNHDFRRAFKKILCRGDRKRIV
Protocol: Experiment 1: Determination of alpha2A and alpha2C Antagonistic Activity In Vitro
The growth medium was removed and the cells were incubated with the test compounds and the FLIPR Calcium 6 Assay reagent (Molecular Devices, CA, USA) for 2 h at 37° C. in dark. The test compounds (concentrations in cells 100 pM-10 μM) were dissolved in Probenecid-Ringer consisting of 150 mM NaCl, 3 mM KCl, 1.2 mM MgCl2, 1 mM CaCl2, 5 mM glucose, 20 mM HEPES and 2.5 mM probenecid (pH 7.4 adjusted with 1.0 M NaOH). […] All experiments were performed at 37° C. For agonism measurements the test compounds dissolved in Probenecid-Ringer were applied by FLIPR Tetra at 15 s time point. In order to determine antagonism, the cells were stimulated either with 100 nM adrenaline or noradrenaline and the test compounds were added to the cells 2 h before the experiment with the FLIPR Calcium 6 Assay reagent. […] Typically, there were four replicates at each concentration and six different dose levels. […] The minimum fluorescence value subtracted from the maximum value for each well was used in the calculations. ScreenWorks version 4.0 software was used for analyzing the results. Fitting of the antagonist dose-response results was performed with the free Hill equation and the IC50 values were fitted with IDBS XE software using model 200: y=(A+(B/(1+((x/C)̂D)))), where A is the curve maximum, B the curve minimum and C equals the EC50 value. D is slope factor (Hill). Kb was calculated with the Cheng-Prusoff equation Kb=A/((B/C)+1), where A is the IC50 of antagonist, B the concentration of agonist and C the EC50 of the agonist.

[2] = molecular target: T2, human alpha2C receptors (Homo sapiens, UniProt P18825); experiment: Determination of alpha2C antagonistic activity in vitro (FLIPR calcium assay); settings: for Kb: Alpha 2C Adrenaline Kb, Kb calculated from IC50 with the Cheng-Prusoff equation, adrenaline as agonist, CHO cells, human alpha2C
T2 sequence (P18825 1-462): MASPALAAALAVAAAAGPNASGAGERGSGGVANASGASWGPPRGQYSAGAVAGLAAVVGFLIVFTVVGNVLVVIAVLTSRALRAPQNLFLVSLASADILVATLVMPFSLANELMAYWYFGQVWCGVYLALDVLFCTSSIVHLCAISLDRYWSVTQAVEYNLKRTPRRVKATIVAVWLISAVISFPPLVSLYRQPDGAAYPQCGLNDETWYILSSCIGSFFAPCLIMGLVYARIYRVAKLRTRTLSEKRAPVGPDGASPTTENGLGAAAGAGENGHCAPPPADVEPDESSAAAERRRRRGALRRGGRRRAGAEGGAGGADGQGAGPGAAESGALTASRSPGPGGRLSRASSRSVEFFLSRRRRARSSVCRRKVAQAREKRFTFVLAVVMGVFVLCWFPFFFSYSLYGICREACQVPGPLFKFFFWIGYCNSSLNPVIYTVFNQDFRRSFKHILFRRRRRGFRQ

SMILES | IC50 [1] [nM] | Kb [1] [nM] | IC50 [2] [nM] | Kb [2] [nM]
O=C1C(=O)N([C@H]2CCCN(C[C@H]3COc4ccccc4O3)C2)C(=O)N1C1CCCCC1 [example 126, 1-Cyclohexyl-3-((S)-1-(((S)-2,3-dihydrobenzo[b][1,4]dioxin-2-yl)methyl)piperidin-3-yl)imidazolidine-2,4,5-trione] | 3890 | 175 | 0.01 | 0.001
O=C1CC(c2ccccc2)CN1[C@H]1CCCN(C[C@H]2COc3ccccc3O2)C1 (stereo partly drawn) [example 32, 1-((S)-1-(((S)-2,3-Dihydrobenzo[b][1,4]dioxin-2-yl)methyl)piperidin-3-yl)-4-phenylpyrrolidin-2-one] | 5210 | 234 | < 0.01 | < 0.001
CC(C)CN1C(=O)C(=O)N([C@H]2CCCN(C[C@H]3COc4ccccc4O3)C2)C1=O [example 141, 1-((S)-1-(((S)-2,3-Dihydrobenzo[b][1,4]dioxin-2-yl)methyl)piperidin-3-yl)-3-isobutylimidazolidine-2,4,5-trione] | > 10000 | > 449 | 0.446 | 0.045
COc1ccc2c(c1)C(=O)N([C@H]1CCCN(C[C@H]3COc4ccccc4O3)C1)C2 [example 70, 2-((S)-1-(((S)-2,3-Dihydrobenzo[b][1,4]dioxin-2-yl)methyl)piperidin-3-yl)-6-methoxyisoindolin-1-one] | > 10000 | > 449 | 0.905 | 0.091
O=C1OC(c2ccc(F)cc2)CN1[C@H]1CCCN(C[C@H]2COc3ccccc3O2)C1 (stereo partly drawn) [example 21, 3-((S)-1-(((S)-2,3-Dihydrobenzo[b][1,4]dioxin-2-yl)methyl)piperidin-3-yl)-5-(4-fluorophenyl)oxazolidin-2-one] | 1400 | 63 | 1.9 | 0.191
CCc1nc2cccnc2n1[C@H]1CCCN(C[C@H]2COc3ccccc3O2)C1 [example 159, 3-((S)-1-(((S)-2,3-Dihydrobenzo[b][1,4]dioxin-2-yl)methyl)piperidin-3-yl)-2-ethyl-3H-imidazo[4,5-b]pyridine] | > 10000 | > 449 | 0.01 | 0.001
Fc1ccc2ncn([C@H]3CCCN(C[C@H]4COc5ccccc5O4)C3)c2c1 [example 82, 1-((S)-1-(((S)-2,3-Dihydrobenzo[b][1,4]dioxin-2-yl)methyl)piperidin-3-yl)-6-fluoro-1H-benzo[d]imidazole] | > 10000 | > 449 | < 0.1 | < 0.01
CCC1(c2ccccc2)C(=O)N([C@H]2CCCN(C[C@H]3COc4ccccc4O3)C2)C(=O)N1C (stereo partly drawn) [example 73, 3-((S)-1-(((S)-2,3-Dihydrobenzo[b][1,4]dioxin-2-yl)methyl)-piperidin-3-yl)-5-ethyl-1-methyl-5-phenylimidazolidine-2,4-dione] | 185 | 8 | < 0.1 | < 0.01
COc1ccc2c(c1)CN([C@H]1CCCN(C[C@H]3COc4ccccc4O3)C1)C2=O [example 69, 2-((S)-1-(((S)-2,3-Dihydrobenzo[b][1,4]dioxin-2-yl)methyl)piperidin-3-yl)-5-methoxyisoindolin-1-one] | > 10000 | > 449 | 0.89 | 0.09
CC(C)N1C(=O)N([C@H]2CCCN(C[C@H]3COc4ccccc4O3)C2)C[C@H]1c1ccccc1 [example 6, (R)-1-((S)-1-(((S)-2,3-Dihydrobenzo[b][1,4]dioxin-2-yl)methyl)-piperidin-3-yl)-3-isopropyl-4-phenylimidazolidin-2-one] | 9870 | 443 | 672 | 67.7
CN1CCCN([C@H]2CCCN(C[C@H]3COc4ccccc4O3)C2)C1=O [example 54, 1-((S)-1-(((S)-2,3-Dihydrobenzo[b][1,4]dioxin-2-yl)methyl)piperidin-3-yl)-3-methyltetrahydropyrimidin-2(1H)-one] | > 10000 | > 449 | 4.95 | 0.5
CC1=C(c2ccccc2)C(=O)N([C@H]2CCCN(C[C@H]3COc4ccccc4O3)C2)C1 [example 42, 1-((S)-1-(((S)-2,3-Dihydrobenzo[b][1,4]dioxin-2-yl)methyl)piperidin-3-yl)-4-methyl-3-phenyl-1H-pyrrol-2(5H)-one] | > 10000 | > 449 | 331 | 33.3

The next lines start with the values.

IC50 [1] [nM] | Kb [1] [nM] | IC50 [2] [nM] | Kb [2] [nM] | SMILES
> 10000 | > 449 | < 0.01 | < 0.001 | COc1ccc2c(c1OC)C(=O)N([C@H]1CCCN(C[C@H]3COc4ccccc4O3)C1)C2=O [example 66, 2-((S)-1-(((S)-2,3-Dihydrobenzo[b][1,4]dioxin-2-yl)methyl)piperidin-3-yl)-4,5-dimethoxyisoindoline-1,3-dione hydrochloride]
> 10000 | > 449 | 1260 | 127 | CC(C)c1nc2ccc(F)cc2n1[C@H]1CCCN(C[C@H]2COc3ccccc3O2)C1 [example 85, 1-((S)-1-(((S)-2,3-Dihydrobenzo[b][1,4]dioxin-2-yl)methyl)piperidin-3-yl)-6-fluoro-2-isopropyl-1H-benzo[d]imidazole]
> 10000 | > 449 | < 0.01 | < 0.001 | CSc1ncc2c(n1)CN([C@H]1CCCN(C[C@H]3COc4ccccc4O3)C1)C2=O [example 22, 6-((S)-1-(((S)-2,3-Dihydrobenzo[b][1,4]dioxin-2-yl)methyl)piperidin-3-yl)-2-(methylthio)-6,7-dihydro-5H-pyrrolo[3,4-d]pyrimidin-5-one]
5840 | 262 | 0.048 | 0.005 | C[C@]1(c2ccccc2)CCN([C@H]2CCCN(C[C@H]3COc4ccccc4O3)C2)C1=O [example 14, (R)-1-((S)-1-(((S)-2,3-Dihydrobenzo[b][1,4]dioxin-2-yl)methyl)piperidin-3-yl)-3-methyl-3-phenylpyrrolidin-2-one]
> 10000 | > 449 | 0.124 | 0.012 | O=c1[nH]c2ccccc2c(=O)n1[C@H]1CCCN(C[C@H]2COc3ccccc3O2)C1 [example 72, 3-((S)-1-(((S)-2,3-Dihydrobenzo[b][1,4]dioxin-2-yl)methyl)-piperidin-3-yl)quinazoline-2,4(1H,3H)-dione]
> 10000 | > 449 | < 0.01 | < 0.001 | COc1ccccc1C1=CC(=O)N([C@H]2CCCN(C[C@H]3COc4ccccc4O3)C2)C1 [example 43, 1-((S)-1-(((S)-2,3-Dihydrobenzo[b][1,4]dioxin-2-yl)methyl)piperidin-3-yl)-4-(2-methoxyphenyl)-1H-pyrrol-2(5H)-one formate]
> 10000 | > 449 | 5.5 | 0.554 | O=C1C(=O)N([C@H]2CCCN(C[C@H]3COc4ccccc4O3)C2)C(=O)N1C1CCNCC1 [example 137, 1-((S)-1-(((S)-2,3-Dihydrobenzo[b][1,4]dioxin-2-yl)methyl)piperidin-3-yl)-3-(piperidin-4-yl)imidazolidine-2,4,5-trione dihydrochloride]
> 10000 | > 449 | 0.029 | 0.003 | COc1cccc2c1CN([C@H]1CCCN(C[C@H]3COc4ccccc4O3)C1)C2=O [example 55, 2-((S)-1-(((S)-2,3-Dihydrobenzo[b][1,4]dioxin-2-yl)methyl)piperidin-3-yl)-4-methoxyisoindolin-1-one]
